The values that follow come from US6022307A, “Substituted dibenzothiophenes having antiangiogenic activity” (American Cyanamid Company, priority 1999, dated 2000).

Counter-ions that a name gives are not always drawn.

The test relates to KDR.

Method: Inhibition of Binding of VEGF 165 to KDR & Flt-1 Receptors as Measured by SPA Assay
Preparation of conditioned media containing the KDR-Fc soluble VEGF receptor.:
Human 293KDR2 cells, which secrete a soluble KDR-Fc fusion protein, were grown in Dulbecco's Modified Eagle Medium supplemented with 10% fetal calf serum, 2 mM glutamine, 10 units/ml penicillin G sulfate, 10 μg/ml streptomycin sulfate and 175 μg/ml geneticin (G418) sulfate. Cells were plated at a density of 10^6 cells/100 mm dish and incubated at 37° C. in a humidified atmosphere containing 95% air and 5% CO2. After 10 days, conditioned medium was collected and centrifuged at 15,000 rpm for 15 min to remove dead cells. A total of 0.1 volume of 1.15% gelatin and 0.02 volume of 1M HEPES buffer (pH 8) was added. Leupeptin and pepstatin A were added to 1 μg/ml each.
Preparation of ^125 I-labelled VEGF ligand:
Recombinant human ^125 T-labelled VEGF 165 was purchased from Amersham (3,800 cpm/fmol). ^125,-labelled VEGF was diluted in DMEM supplemented with gelatin (0.15%) and HEPES buffer (20 mM) to a final concentration of 40,000 cpm/25 μl.
Preparation of SPA beads:
SPA PVT antibody-binding beads were purchased from Amersham. Each bottle of SPA beads (500 mg) was reconstituted in 25 ml of DMEM supplemented with gelatin (0.15%) and HEPES buffer (20 mM). The bottle contents were well mixed (15 min with a stir bar at room temperature).
SPA assays were performed in flat-bottom polystyrene 96 well microtitre plates.
(a) Pipette 50 μl of SPA beads to well.
(b) Pipette 25 μl of conditioned medium to well.
(d) Pipette 25 μl of ^125 J-VEGF 165 to well.
The appropriate control wells were set up to measure non-specific binding, solvent effect, etc. The assays were run in duplicate or triplicate wells. Plates were sealed and incubate at room temperature without shaking for 5 to 20 hours. Plates were then counted in a Packard TopCount microtitre plate liquid scintillation counter.
A typical assay gave 3,000 to 6,000 cpm bound. Background binding (measured in the presence of 100-fold molar excess of unlabelled VEGF 165) was typically 200 to 300 cpm bound. Compounds were tested at 30, 10, 3, 1, 0.3 and 0.1 μg/ml in DMSO. […] Half maximal binding was determined by the following equation:
s=maximal cpm bound in the absence of compound.
The IC50 values were determined graphically by the following procedure:
A graph was drawn plotting compound concentration (x-axis) versus cpm bound (y-axis).
The half maximal binding was calculated using the equation above.
A horizontal line (LINE A) was drawn which intersects the y-axis at the half maximal binding value.
A vertical line (LINE B) was drawn through the point where LINE A intersects the inhibition curve.
The point where LINE B intersects the x-axis was extrapolated from the graph to give the IC50 value.

The compound `O=C(Nc1cc2sc3cc(NC(=O)c4ccc5cc6ccccc6cc5c4)c(C(=O)O)cc3c2cc1C(=O)O)c1ccc2cc3ccccc3cc2c1` [Example 3, 3,7-Bis[(2-anthracenylcarbonyl)amino]-2,8-dibenzothiophene-2,8-dicarboxylic acid, disodium salt] registered an IC50 of 3.4 µg/mL.

`O=C(Nc1cc2sc3cc(NC(=O)c4cc5sccc5s4)c(C(=O)O)cc3c2cc1C(=O)O)c1cc2sccc2s1` [Example 5, 3,7-Bis[(thieno[3,2-b]thien-2-ylcarbonyl)amino]dibenzothiophene-2,8-dicarboxylic acid, disodium salt]: it took 0.7 µg/mL to reach half-maximal inhibition (IC50).

Take `O=C(/C=C/c1ccc(-c2ccccc2)cc1)Nc1cc2sc3cc(NC(=O)/C=C/c4ccc(-c5ccccc5)cc4)c(C(=O)O)cc3c2cc1C(=O)O` [Example 9, 3,7-Bis-(3-biphenyl-4-ylacryloylamino)dibenzothiophene-2,8-dicarboxylic Acid, disodium salt]: the midpoint of inhibition, the IC50, lay at 3.4 µg/mL.

Turning to `COc1cc(/C=C/C(=O)Nc2cc3sc4cc(NC(=O)/C=C/c5cc(Br)c(O)c(OC)c5)c(C(=O)O)cc4c3cc2C(=O)O)cc(Br)c1O` [Example 10, 3,7-Bis-[3-(3-bromo-4-hydroxy-5-methoxy-phenyl)acryloylamino]-dibenzothiophene-2,8-dicarboxylic Acid, disodium], the IC50 turned out to be 0.9 µg/mL.

Regarding `COc1ccc(/C=C/C(=O)Nc2cc3sc4cc(NC(=O)/C=C/c5ccc(OC)c(OC)c5OC)c(C(=O)O)cc4c3cc2C(=O)O)c(OC)c1OC` [Example 11, 3,7-Bis-[3-(2,3,4-trimethoxyphenyl)acryloylamino]dibenzothiophene-2,8-dicarboxylic Acid, disodium salt], half-maximal inhibition (IC50) required 1.7 µg/mL.

`C=C(C(=O)Nc1cc2sc3cc(Cl)c(C(=O)O)cc3c2cc1C(=O)O)c1ccc(OC)c(OC)c1Cl` [Example 14, 3-Chloro-7-[2-(2-chloro-3,4-dimethoxyphenyl)acryloylamino]dibenzothiophene-2,8-dicarboxylic acid, disodium salt]: the IC50 worked out at 3 µg/mL.

As for `O=C(Nc1cc2sc3cc(Cl)c(C(=O)O)cc3c2cc1C(=O)O)c1ccc2cc3ccccc3cc2c1` [Example 15, 3-[(2-Anthracenylcarbonyl)amino]-7-chlorodibenzothiophene-2,8-dicarboxylic acid, disodium salt], the IC50 turned out to be 1.6 µg/mL.

With `CCOP(=O)(O)c1cc2c(cc1NC(=O)/C=C/c1ccc(OC)c(OC)c1Cl)S(=O)(=O)c1cc(NC(=O)/C=C/c3ccc(OC)c(OC)c3Cl)c(P(=O)(O)OCC)cc1-2` [Example 19, [3,7-Bis-[3-(2-chloro-3,4-dimethoxyphenyl)acryloylamino]-8-(ethoxyhydroxyphosphoryl)-5 .5-dioxo-5H-5λ^6-dibenzothiophen-2-yl]phosphonic acid monoethyl ester, disodium salt], the IC50 stood at 0.55 µg/mL.

In turn, `CCOP(=O)(O)c1cc2c(cc1NC(=O)c1ccc3c(c1)C(=O)c1ccccc1C3=O)S(=O)(=O)c1cc(NC(=O)c3ccc4c(c3)C(=O)c3ccccc3C4=O)c(P(=O)(O)OCC)cc1-2` [Example 21, [3,7-Bis-[9,10-dioxo-9,10-dihydroanthracene-2-carbonyl)amino]-8-(ethoxyhydroxy-phosphoryl)-5,5-dioxo-5H-5^6-dibenzothiophen-2-yl]phosphonic acid monoethyl ester, disodium salt] came in with an IC50 of 0.2 µg/mL.

In the case of `CCOP(=O)(O)c1cc2c(cc1NC(=O)c1ccc3cc4ccccc4cc3c1)S(=O)(=O)c1cc(NC(=O)c3ccc4cc5ccccc5cc4c3)c(P(=O)(O)OCC)cc1-2` [Example 22, [3,7-Bis-[(anthracene-2-carbonyl)amino]-8-(ethoxyhydroxy-phosphoryl)-5,5-dioxo-5H-5^6-dibenzothiophen-2-yl]-phosphonic acid mono-ethyl ester, disodium salt], the IC50 was 0.06 µg/mL.

Compound `CCOP(=O)(O)c1cc2c(cc1NC(=O)c1cc3ccccc3s1)S(=O)(=O)c1cc(NC(=O)c3cc4ccccc4s3)c(P(=O)(OCC)OCC)cc1-2` [Example 23b, [3,7-Bis[(benzo[b]thiophene-2-carbonyl)amino-8-(diethoxyphosphoryl)-5,5-dioxo-5H-5λ^6-dibenzothiophen-2-yl]phosphonic acid monoethyl ester, monosodium salt] yielded an IC50 of 0.58 µg/mL.

As for `O=C(/C=C/c1ccc([N+](=O)[O-])cc1)Nc1cc2c(cc1S(=O)(=O)O)-c1cc(S(=O)(=O)O)c(NC(=O)/C=C/c3ccc([N+](=O)[O-])cc3)cc1S2(=O)=O` [Example 25, 3,7-Bis-[3-(4-nitrophenyl)-acryloylamino]-5,5-dioxo-5H-5^6-dibenzothiophene-2,8-disulfonic acid, disodium salt], the midpoint of inhibition, the IC50, lay at 1 µg/mL.

Compound `O=C(/C=C/c1cccc2ccccc12)Nc1cc2c(cc1S(=O)(=O)O)-c1cc(S(=O)(=O)O)c(NC(=O)/C=C/c3cccc4ccccc34)cc1S2(=O)=O` [Example 26, 3,7-Bis-(3-naphthalen-1-yl-acryloylamino)-5,5-dioxo-5H-5^6-dibenzothiophene-2,8-disulfonic acid, disodium salt] had an IC50 of 1.5 µg/mL.

In turn, `O=C(/C=C/c1ccncc1)Nc1cc2c(cc1S(=O)(=O)O)-c1cc(S(=O)(=O)O)c(NC(=O)/C=C/c3ccncc3)cc1S2(=O)=O` [Example 28, 5,5-Dioxo-3,7-bis-(3-pyridin-4-ylacryloylamino)-5H-5^6-dibenzothiophene-2,8-disulfonic acid, disodium salt] displayed an IC50 of 2.5 µg/mL.

In turn, `O=C(/C=C/c1cccc(O)c1)Nc1cc2c(cc1S(=O)(=O)O)-c1cc(S(=O)(=O)O)c(NC(=O)/C=C/c3cccc(O)c3)cc1S2(=O)=O` [Example 31, 3,7-Bis-[(E)-3-(3-hydroxy-phenyl)acryloylamino]-5,5-dioxo-5H-5^6-dibenzothiophene-2,8-disulfonic acid, disodium] registered a half-inhibitory concentration (IC50) of 5 µg/mL.

With `N#Cc1ccc(/C=C/C(=O)Nc2cc3c(cc2S(=O)(=O)O)-c2cc(S(=O)(=O)O)c(NC(=O)/C=C/c4ccc(C#N)cc4)cc2S3(=O)=O)cc1` [Example 32, 3,7-Bis-[3-(4-cyanophenyl)-acryloylamino]-5,5-dioxo-5H-5^6-dibenzothiophene-2,8-disulfonic acid, disodium salt], the IC50 is 0.8 µg/mL.

`O=C(/C=C/c1ccc(Br)cc1)Nc1cc2c(cc1S(=O)(=O)O)-c1cc(S(=O)(=O)O)c(NC(=O)/C=C/c3ccc(Br)cc3)cc1S2(=O)=O` [Example 33, 3,7-Bis-[3-(4-bromophenyl)-acryloylamino]-5,5-dioxo-5H-5^6-dibenzothiophene-2,8-disulfonic acid, disodium salt] came in with an IC50 of 0.5 µg/mL.

As for `COc1ccccc1/C=C/C(=O)Nc1cc2c(cc1S(=O)(=O)O)-c1cc(S(=O)(=O)O)c(NC(=O)/C=C/c3ccccc3OC)cc1S2(=O)=O` [Example 34, 3,7-Bis-[3-(2-methoxyphenyl)-acryloylamino]-5,5-dioxo-5H-5^6-dibenzothiophene-2,8-disulfonic acid, disodium salt], the IC50 came out at 2.5 µg/mL.

`Cc1ccc(C)c(/C=C/C(=O)Nc2cc3c(cc2S(=O)(=O)O)-c2cc(S(=O)(=O)O)c(NC(=O)/C=C/c4cc(C)ccc4C)cc2S3(=O)=O)c1` [Example 35, 3,7-Bis-[3-(2,5-dimethylphenyl)-acryloylamino]-5,5-dioxo-5H-5^6-dibenzothiophene-2,8-disulfonic acid, disodium]: the IC50 is 2.5 µg/mL.

The compound `CC(C)c1ccc(/C=C/C(=O)Nc2cc3c(cc2S(=O)(=O)O)-c2cc(S(=O)(=O)O)c(NC(=O)/C=C/c4ccc(C(C)C)cc4)cc2S3(=O)=O)cc1` [Example 36, 3,7-Bis-[3-(4-isopropylphenyl)-acryloylamino]-5,5-dioxo-5H-5^ -dibenzothiophene-2,8-disulfonic acid, disodium] registered an IC50 of 6 µg/mL.

In turn, `COc1ccccc1C=CC(=O)Nc1cc2c(cc1S(=O)(=O)O)-c1cc(S(=O)(=O)O)c(NC(=O)C=Cc3ccccc3OC)cc1S2(=O)=O` [Example 37, 3,7-Bis-[3-(2-methoxyphenyl)-acryloylamino]-5,5-dioxo-5H-5^6-dibenzothiophene-2,8-disulfonic acid, disodium salt] yielded a 50% inhibitory concentration (IC50) of 2 µg/mL.

`O=C(/C=C/c1cccc(C(F)(F)F)c1)Nc1cc2c(cc1S(=O)(=O)O)-c1cc(S(=O)(=O)O)c(NC(=O)/C=C/c3cccc(C(F)(F)F)c3)cc1S2(=O)=O` [Example 38, 3,7-Bis-[3-(3-trifluoromethyl-phenyl)acryloyl-amino]-5,5-dioxo-5H-5^6-dibenzothiophene-2,8-disulfonic acid, disodium salt] gave an IC50 of 5 µg/mL.

In turn, `O=C(Nc1cc2c(cc1S(=O)(=O)O)-c1cc(S(=O)(=O)O)c(NC(=O)c3cc4ccccc4s3)cc1S2(=O)=O)c1cc2ccccc2s1` [Example 40, 3,7-Bis-[(benzo[b]thiophene-2-carbonyl)amino]-5,5-dioxo-5H-5^ -dibenzothiophene-2,8-disulfonic acid, disodium] had an IC50 of 4 µg/mL.

Compound `O=C(Nc1cc2c(cc1S(=O)(=O)O)-c1cc(S(=O)(=O)O)c(NC(=O)c3cc4sccc4s3)cc1S2(=O)=O)c1cc2sccc2s1` [Example 43, 5,5-Dioxo-3,7-bis-[(thieno[3,2-b]thiophene-2-carbonyl)-amino]-5H-5^6-dibenzothiophene-2,8-disulfonic acid, disodium] displayed an IC50 of 0.6 µg/mL.

Turning to `Cc1nn(C)c2sc(C(=O)Nc3cc4c(cc3S(=O)(=O)O)-c3cc(S(=O)(=O)O)c(NC(=O)c5cc6c(C)nn(C)c6s5)cc3S4(=O)=O)cc12` [Example 44, 3,7-Bis-[(1,3-di-methyl-1H-thieno[2,3-c]pyrazole-5-carbonyl)amino]-5,5-dioxo-5H-5^6-dibenzothiophene-2,8-disulfonic acid, disodium salt], the IC50 was found to be 1.5 µg/mL.

For `O=C(Nc1cc2c(cc1S(=O)(=O)O)-c1cc(S(=O)(=O)O)c(NC(=O)c3cnn(-c4ccccc4)n3)cc1S2(=O)=O)c1cnn(-c2ccccc2)n1` [Example 46, 5,5-Dioxo-3,7-bis-[(2-phenyl-2H-[1,2,3]triazole-4-carbonyl)amino]-5H-5^6-dibenzothiophene-2,8-disulfonic acid, disodium salt], the IC50 amounted to 5 µg/mL.

`COc1ccc(C(=O)Nc2cc3c(cc2S(=O)(=O)O)-c2cc(S(=O)(=O)O)c(NC(=O)c4ccc(OC)cc4)cc2S3(=O)=O)cc1` [Example 50, 3,7-Bis-(4-methoxybenzoyl-amino)-5,5-dioxo-5H-5^6-dibenzothiophene-2,8-disulfonic acid, disodium salt] had an IC50 of 5 µg/mL.
